Test results from patent publication US7488712B2, “Histone deacetylase inhibitors and methods for producing the same” (Kyushu Institute of Technology, priority 2002, dated 2009).
*1 amine or outer side, *2 acyl side, *3 side chain or, on linkers, in order; H or OH if unused. Where a SMILES comes first, the peptide text is derived from it. Bridges are numbered along the chain shown (N, C = ends). Roman numbers before positions name the chains, in order. [ ]: non-standard residue; d: D form. hNle(7-SH) = O=C([C@H](CCCCCS[*:3])N[*:1])[*:2]

Tests used:
[1] = Stability in serum (FCS), read out by p21 promoter inducing activity; assay type: in vitro ADME
Description: The stability of SCOP 152, SCOP 304, and SCOP 402 in serum was evaluated by the method shown below: 1 μl of 10 mM SCOP 152, SCOP 304, and SCOP 402 was added to 99 μl FCS, and incubated at 37° C. Each hour, NaCl in a sufficient amount for saturation and 1 ml of ethyl acetate were added to each mixture. After extraction, from 800 μl of the ethyl acetate phase, the ethyl acetate was distilled off, and then 100 μl of DMSO was added to the residue. The resulting solution was further diluted ten times with DMSO and used to measure p21 promoter inducing activity. Activity at incubation time zero was taken as 100%, and activities were compared (FIG. 7).

[2] = test system: human uterine cancer cells (HeLa); experiment: in vitro
Description: (§1) Human normal lung cells (TIG-3) and human uterine cancer cells (HeLa) were used to test SCOP cytotoxicity. These TIG-3 and HeLa cells were cultured in a DMEM medium comprising 10% FBS at 37° C. in the presence of 5% carbon dioxide in a steam-saturated incubator. The TIG-3 and HeLa cells were plated in 100 μl/well of the above-described medium on a 96-well microtiter plate, at a density of 30,000 cells/well and 10,000 cells/well respectively. This was then cultured for 18 hours. Test compound solution diluted with medium was added to each well and culture was continued for another 48 hours.
(§2) 30 μl of supernatant from each well was transferred to another 96-well microtiter plate (A), and the remaining supernatant was discarded. 100 μl of 0.5% Triton-X/PBS was added to each well to lyse the cells, and 30 μl was then transferred to each respective well of another 96-well microtiter plate (B). 30 μl of LDH-Cytotoxic Test (Wako) substrate solution was added to each well of these 96-well microtiter plates A and B, causing a color reaction. Once the color reaction was sufficiently progressed, it was stopped by adding 60 μl of a quenching solution. Color intensity was measured at OD560 nm using a microplate reader (Softmax). [A/(A+B)] was calculated as the free-LDH ratio. […] The higher the activity value for cancer-cell-selective cell damage (LD50 for normal cells/LD50 for cancer cells), the more that cancer-cell-selective apoptosis was induced.

[3] = in vitro; conditions: human, Cancer-Cell-Selective Cytotoxicity
Description: as §1, §2

[4] = molecular target: T1, human HDAC4 (Homo sapiens, UniProt P56524); experiment: In vitro HDAC inhibition activity, [3H]-acetylated histone substrate, HDAC4; assay type: biochemical; conditions: Table 2; homodimer
T1 construct: FLAG; made in house; host or cells: 293T cells (transient transfection, anti-FLAG immunoprecipitation, FLAG peptide elution)
Description: (§3) To measure HDAC inhibition activity, an HDAC solution was prepared as described below. 1×10^7 of 293T cells were plated on to a 100-mm dish and, after 24 hours, transfected with vectors (1 μg) expressing human HDAC1 and HDAC4 or mouse HDAC6, using LipofectAmine 2000 reagent (Life Technologies, Inc. Gaithersburg, Md.). […] The vectors were introduced for five hours in OPTI-MEM. The medium was then replaced with Dulbecco's modified Eagle's medium (DMEM), and incubated for 19 hours. The cells were washed with PBS, suspended in lysis buffer (50 mM Tris-HCl (pH7.5), 120 mM NaCl, 5 mM EDTA, and 0.5% Nonidet P-40), and sonicated. The supernatant was collected by centrifugation and nonspecific protein was removed using Protein A/G plus agarose beads (Santa Cruz Biotechnologies, Inc.). Anti-FLAG M2 antibodies (Sigma-Aldrich, Inc.) were added to the supernatant of cells expressing HDAC1 or HDAC4. Anti-HA antibodies (clone 3F10, Roche Molecular Biochemicals) were added to the supernatant of cells expressing HDAC6. Reaction in the respective mixtures was carried out at 4° C. for one hour. The resulting reaction mixtures were independently mixed with agarose beads and further reacted at 4° C. for one hour. The agarose beads were washed three times with lysis buffer and then washed once with HD buffer (20 mM Tris-HCl (pH8.0), 150 mM NaCl, 10% glycerol, and a complete protease inhibitor cocktail (Boehringer Mannheim, Germany)). […] The HDAC reaction solution was used for determining HDAC inhibition activity as shown below.
(§4) In vitro HDAC inhibition activity was evaluated as follows: A test compound was dissolved in DMSO and adjusted to 10 mM. This was used as an inhibitor stock solution. […] These reactions were stopped by adding 10 μl HCl. The [^3H] acetic acid excised by the enzyme reaction was extracted with ethyl acetate and subjected to radioactive dose measurement. As a negative control, the same procedure was carried out in which no inhibitor was added to the reaction system. The inhibition activity was expressed as a 50% inhibition concentration (“IC50 (nM)”) of the HDAC activity in the negative control (Tables 1 to 4).

[5] = molecular target: T2, mouse HDAC6 (Mus musculus, UniProt Q9Z2V5); experiment: In vitro HDAC inhibition activity, [3H]-acetylated histone substrate, HDAC6; assay type: biochemical; conditions: Table 2; homodimer
T2 construct: HA; made in house; host or cells: 293T cells (transient transfection, anti-HA immunoprecipitation, HA peptide elution)
T2 sequence (Q9Z2V5 1-1149): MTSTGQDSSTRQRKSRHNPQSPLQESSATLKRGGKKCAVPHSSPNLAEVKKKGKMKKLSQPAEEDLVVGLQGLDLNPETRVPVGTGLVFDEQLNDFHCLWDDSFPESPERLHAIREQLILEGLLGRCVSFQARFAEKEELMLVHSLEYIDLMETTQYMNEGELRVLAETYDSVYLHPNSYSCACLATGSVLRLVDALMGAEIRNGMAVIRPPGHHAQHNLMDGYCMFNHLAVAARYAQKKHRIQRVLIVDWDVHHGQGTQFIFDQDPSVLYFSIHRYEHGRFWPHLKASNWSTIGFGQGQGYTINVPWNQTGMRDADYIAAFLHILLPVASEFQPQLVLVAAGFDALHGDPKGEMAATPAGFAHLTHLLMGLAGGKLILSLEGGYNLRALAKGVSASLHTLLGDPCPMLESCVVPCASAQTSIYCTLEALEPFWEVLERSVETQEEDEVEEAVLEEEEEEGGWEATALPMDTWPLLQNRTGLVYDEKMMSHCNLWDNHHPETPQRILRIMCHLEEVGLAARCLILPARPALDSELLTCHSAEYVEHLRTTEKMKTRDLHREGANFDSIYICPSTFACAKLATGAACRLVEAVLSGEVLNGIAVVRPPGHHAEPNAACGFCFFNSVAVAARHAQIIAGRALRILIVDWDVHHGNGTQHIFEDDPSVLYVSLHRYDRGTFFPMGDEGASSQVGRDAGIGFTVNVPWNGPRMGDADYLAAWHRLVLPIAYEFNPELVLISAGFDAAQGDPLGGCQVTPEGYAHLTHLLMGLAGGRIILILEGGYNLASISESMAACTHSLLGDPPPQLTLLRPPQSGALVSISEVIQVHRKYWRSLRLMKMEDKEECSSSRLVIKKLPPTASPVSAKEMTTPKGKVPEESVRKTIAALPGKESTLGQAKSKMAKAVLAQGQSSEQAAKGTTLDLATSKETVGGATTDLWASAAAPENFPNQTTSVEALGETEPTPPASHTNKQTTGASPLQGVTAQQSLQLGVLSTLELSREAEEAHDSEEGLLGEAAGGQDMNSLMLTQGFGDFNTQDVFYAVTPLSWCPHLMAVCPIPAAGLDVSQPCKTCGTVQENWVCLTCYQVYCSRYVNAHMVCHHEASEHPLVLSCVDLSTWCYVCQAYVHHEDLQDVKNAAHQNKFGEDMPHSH
Description: as §3, §4

[6] = test system: human wild-type p21 promoter; experiment: p21 promoter-inducing activity (luciferase) in MFLL-9 cells; assay type: cell-based
Description: The HDAC inhibition activity in vivo was measured using p21 promoter-inducing activity as an index, as shown below. The MFLL-9 cells employed for the experiments stably maintained fusion genes of human wild-type p21 promoter and luciferase (Dr. B. Vogelstaein). Using phenol red-free DMEM medium comprising 10% FBS, cultivation was carried out in a steam-saturated incubator at 37° C. with 5% carbon dioxide. The MFLL-9 cells were plated at a density of 85,000 cells/well on a 96-well microtiter plate, each in 99 μl of the above-mentioned medium. These were then cultivated for six hours. One μl of test compound solution was added to each well, which was then cultured for another 18 hours.
The intensity of luminescence caused by the product of the enzyme reaction for intracellular luciferase expression was measured using Luc Lite (Packard BioScience Company). A group in which test compounds were not added was used as a negative control group. The values measured for this group were used as a standard. The activities for each concentration of added test compound were expressed relative to the above-mentioned standard value, 1.

[7] = molecular target: T3, human HDAC1 (Homo sapiens, UniProt Q13547); experiment: In vitro HDAC inhibition activity, [3H]-acetylated histone substrate, HDAC1; assay type: biochemical; conditions: Table 2; homodimer
T3 construct: FLAG; made in house; host or cells: 293T cells (transient transfection, anti-FLAG immunoprecipitation, FLAG peptide elution)
Description: as §3, §4

[8] = test system: Human normal lung cells (TIG-3); experiment: Cytotoxicity test (free-LDH ratio), TIG-3; assay type: cell-based; conditions: 48 hours; free-LDH ratio 50%; without DTT
Description: This was then cultured for 18 hours.

T1 sequence (O15379 whole entry partner): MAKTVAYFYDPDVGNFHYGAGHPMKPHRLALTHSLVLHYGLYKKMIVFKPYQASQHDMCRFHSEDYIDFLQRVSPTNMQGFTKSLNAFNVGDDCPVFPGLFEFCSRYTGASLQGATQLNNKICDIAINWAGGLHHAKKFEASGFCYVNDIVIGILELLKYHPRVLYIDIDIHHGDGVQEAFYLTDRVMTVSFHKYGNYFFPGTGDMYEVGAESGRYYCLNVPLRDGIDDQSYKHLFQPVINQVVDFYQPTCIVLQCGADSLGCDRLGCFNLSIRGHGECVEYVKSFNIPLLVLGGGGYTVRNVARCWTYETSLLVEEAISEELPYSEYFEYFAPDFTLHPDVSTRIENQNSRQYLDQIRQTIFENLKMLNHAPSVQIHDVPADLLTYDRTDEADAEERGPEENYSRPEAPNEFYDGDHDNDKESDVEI
T1 sequence (P56524 whole entry): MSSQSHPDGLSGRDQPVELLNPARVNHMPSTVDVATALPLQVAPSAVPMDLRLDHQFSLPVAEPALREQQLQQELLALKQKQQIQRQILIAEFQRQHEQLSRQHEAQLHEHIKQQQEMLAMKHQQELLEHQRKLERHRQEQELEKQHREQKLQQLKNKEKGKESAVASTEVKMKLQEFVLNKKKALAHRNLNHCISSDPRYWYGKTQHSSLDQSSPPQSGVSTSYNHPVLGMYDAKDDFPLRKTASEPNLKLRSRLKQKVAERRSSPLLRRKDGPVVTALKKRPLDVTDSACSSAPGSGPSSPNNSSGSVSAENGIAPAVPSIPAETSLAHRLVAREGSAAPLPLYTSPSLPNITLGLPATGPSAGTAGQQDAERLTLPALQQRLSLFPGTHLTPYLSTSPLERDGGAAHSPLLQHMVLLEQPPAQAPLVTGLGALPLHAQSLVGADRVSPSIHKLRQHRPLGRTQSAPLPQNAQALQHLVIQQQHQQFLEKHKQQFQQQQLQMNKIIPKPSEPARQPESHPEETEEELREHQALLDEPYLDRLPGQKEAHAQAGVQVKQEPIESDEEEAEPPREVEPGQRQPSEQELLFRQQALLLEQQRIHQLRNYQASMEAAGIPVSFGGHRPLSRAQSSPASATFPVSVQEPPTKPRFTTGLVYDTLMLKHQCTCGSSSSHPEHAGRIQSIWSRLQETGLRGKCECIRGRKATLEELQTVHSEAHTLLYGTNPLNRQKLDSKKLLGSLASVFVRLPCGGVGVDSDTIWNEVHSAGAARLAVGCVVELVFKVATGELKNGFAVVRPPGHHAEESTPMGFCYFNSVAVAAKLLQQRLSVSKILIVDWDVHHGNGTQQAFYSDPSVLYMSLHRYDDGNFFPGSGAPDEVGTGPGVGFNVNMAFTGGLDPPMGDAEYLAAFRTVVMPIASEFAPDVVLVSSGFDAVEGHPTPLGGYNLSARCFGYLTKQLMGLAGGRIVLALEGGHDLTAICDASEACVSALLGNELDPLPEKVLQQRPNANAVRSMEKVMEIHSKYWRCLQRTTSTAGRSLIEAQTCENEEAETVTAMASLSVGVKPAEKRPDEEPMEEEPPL
T3 sequence (Q13547 whole entry): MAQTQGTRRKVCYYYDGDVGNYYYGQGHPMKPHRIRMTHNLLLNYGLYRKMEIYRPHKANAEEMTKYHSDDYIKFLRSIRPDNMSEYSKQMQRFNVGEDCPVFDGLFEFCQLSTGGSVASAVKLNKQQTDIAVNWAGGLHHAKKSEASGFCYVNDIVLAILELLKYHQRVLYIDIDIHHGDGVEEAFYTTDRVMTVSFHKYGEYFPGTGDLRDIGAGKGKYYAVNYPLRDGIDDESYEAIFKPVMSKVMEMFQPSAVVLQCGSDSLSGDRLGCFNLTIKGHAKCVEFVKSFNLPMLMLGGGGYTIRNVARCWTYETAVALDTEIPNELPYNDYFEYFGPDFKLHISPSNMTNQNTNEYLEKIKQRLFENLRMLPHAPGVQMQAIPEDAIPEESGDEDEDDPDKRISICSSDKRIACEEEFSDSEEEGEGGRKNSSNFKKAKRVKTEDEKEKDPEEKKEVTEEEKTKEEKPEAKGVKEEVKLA

SMILES: CC[C@H](C)[C@@H]1NC(=O)[C@@H](Cc2ccc(OC)cc2)NC(=O)[C@H](CCCCCSSCCCCC[C@@H]2NC(=O)[C@H]3CCCN3C(=O)[C@H]([C@@H](C)CC)NC(=O)[C@@H](Cc3ccc(OC)cc3)NC2=O)NC(=O)[C@H]2CCCN2C1=O [SCOP 304, cyclo(-L-Am7(-)-D-Tyr(Me)-L-Ile-D-Pro-)] (I: cyclo([hNle(7-SH)][dY](Me)I[dP]) / II: cyclo([hNle(7-SH)][dY](Me)I[dP]); disulfide I:1-II:1)
- Retention of activity in serum [1]: stably retain activity in serum for longer than SCOP 152
- Cancer-Cell-Selective Cytotoxicity ([2]; human, 48 h): 23.0
- selectivity ratio at 48 h [3]: 25.2
- IC50 [4]: 145 nM
- IC50 [5]: > 500000 nM
- EC50 ([6]; Table 2, homodimer): 341 nM
- IC50 [7]: 142 nM

SMILES: CC(/C=C/C(=O)NO)=C\[C@@H](C)C(=O)c1ccc(N(C)C)cc1 [TSA, Tricostatin A, reference compound]
- LD50 (nM) HeLa ([2]; 48 hours, free-LDH ratio 50%, without DTT): 41.4 nM
- EC50 ([6]; Table 4, positive control): 445 nM
- LD50 (nM) TIG-3 [8]: 1580 nM
